Test results published in patent publication US7932255B2, “2-aminocarbonyl substituted piperazine or diaza-cyclic compounds as apoptosis protein inhibitors (lap) modulators” (Novartis AG, priority 2006, dated 2011).
Read-outs that look alike come from different tables or passages of the source.

Biological target: T1, XIAP (Homo sapiens, UniProt P98170)
T1 construct: GST
Test: Disruption of the Smac peptide-(XIAP)BIR3 protein-protein interaction (Tables 2 and 3)
Type: binding
Experimental: IC50 values for Series A compounds for XIAP. An assay capable of measuring disruption of the Smac peptide-(XIAP)BIR3 protein-protein interaction is established in the art as described in Example 2. In this assay IAP Inhibitor compounds compete with an immobilized Smac peptide for occupancy of the BIR3 binding pocket of XIAP. The rationale for this strategy results from the mutually exclusive nature of either Caspase 9 or Smac binding to the BIR3 pocket.
Assays are performed and IC50 values are calculated as follows: […]
IC50 values are calculated by logarithmic regression analysis of the percentage inhibition of each compound at 4 concentrations (usually 3- or 10-fold dilution series starting at 10 μM). In each experiment, the actual inhibition by reference compound is used for normalization of IC50 values to the basis of an average value of the reference inhibitor: Normalized IC50=measured IC50 average ref. IC50/measured ref. IC50
Activity determinations of compounds herein using the testing method described herein and as are well known in the art, are used with the following test compounds of formula (I). […] “Activity” as used herein is defined as having IC50 values for IAP target inhibition of less than 10 μM. Specifically, in the table:
IC50 values for Series B compounds are provided for XIAP. Assays are performed as described above using methods well known in the art.

[1] = Series A compounds, Table 2, read-out: XIAP IC50
[2] = Series B compounds, Table 3, read-out: XIXP IC50

T1 sequence (P98170 248-358 limits assumed, species assumed): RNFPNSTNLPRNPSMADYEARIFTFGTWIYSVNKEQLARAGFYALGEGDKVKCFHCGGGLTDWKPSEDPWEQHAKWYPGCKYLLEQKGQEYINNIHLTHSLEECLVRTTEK

Compound	IC50 [1] [µM]	IC50 [2] [µM]
CCCN1CCN(C(=O)[C@@H](NC(=O)[C@H](C)NC)C(C)C)[C@H](C(=O)NC2CCCc3ccccc32)C1 (stereo partly drawn) [Compound 25, (S)-1-[(S)-3-Methyl-2-((S)-2-methylamino-propionylamino)-butyryl]-4-propyl-piperazine-2-carboxylic acid (1,2,3,4-tetrahydro-naphthalen-1-yl)-amide]	< 10	–
CN[C@@H](C)C(=O)N[C@H](C(=O)N1CCN(C(=O)NC(C)(C)C)C[C@H]1C(=O)NC1CCCc2ccccc21)C(C)C (stereo partly drawn) [Compound 39, (S)-4-[(S)-3-Methyl-2-((S)-2-methylamino-propionylamino)-butyryl]-piperazine-1,3-dicarboxylic acid 1-tert-butylamide 3-[(1,2,3,4-tetrahydro-naphthalen-1-yl)-amide]]	< 10	–
CN[C@@H](C)C(=O)N[C@H](C(=O)N1CCN(Cc2ccccc2)C[C@H]1C(=O)NC1CCCc2ccccc21)C(C)C (stereo partly drawn) [Compound 53, (S)-4-Benzyl-1-[(S)-3-methyl-2-((S)-2-methylamino-propionylamino)-butyryl]-piperazine-2-carboxylic acid (1,2,3,4-tetrahydro-naphthalen-1-yl)-amide]	< 10	–
CN[C@@H](C)C(=O)N[C@H](C(=O)N1CCN(C(=O)c2ccc(F)cc2)C[C@H]1C(=O)NC1CCCc2ccccc21)C(C)C (stereo partly drawn) [Compound 17, (S)-4-(4-Fluoro-benzoyl)-1-[(S)-3-methyl-2-((S)-2-methylamino-propionylamino)-butyryl]-piperazine-2-carboxylic acid (1,2,3,4-tetrahydro-naphthalen-1-yl)-amide]	< 10	–
CNC(C)C(=O)NC(C(=O)N1CCN(S(=O)(=O)c2ccccc2)CC1C(=O)NC1CCCc2ccccc21)C(C)C (stereo not drawn) [Compound 2, 4-Benzenesulfonyl-1-[3-methyl-2-(2-methylamino-propionylamino)-butyryl]-piperazine-2-carboxylic acid (1,2,3,4-tetrahydro-naphthalen-1-yl)-amide]	< 10	–
CN[C@@H](C)C(=O)N[C@H](C(=O)N1CCN(Cc2cccc(OC)c2)C[C@H]1C(=O)NC1CCCc2ccccc21)C(C)C (stereo partly drawn) [Compound 29, (S)-4-(3-Methoxy-benzyl)-1-[(S)-3-methyl-2-((S)-2-methylamino-propionylamino)-butyryl]-piperazine-2-carboxylic acid (1,2,3,4-tetrahydro-naphthalen-1-yl)-amide]	< 10	–
CN[C@@H](C)C(=O)N[C@H](C(=O)N1CCN(Cc2ccccc2)C[C@H]1C(=O)NC1CCc2ccccc2C1)C(C)C (stereo partly drawn) [Compound 74, (S)-4-Benzyl-1-[(S)-3-methyl-2-((S)-2-methylamino-propionylamino)-butyryl]-piperazine-2-carboxylic acid (1,2,3,4-tetrahydro-naphthalen-2-yl)-amide]	–	< 10
CN[C@@H](C)C(=O)N[C@H](C(=O)N1CCN(Cc2ccccc2)C[C@H]1C(=O)NCCCc1ccccc1)C(C)C [Compound 72, (S)-4-Benzyl-1-[(S)-3-methyl-2-((S)-2-methylamino-propionylamino)-butyryl]-piperazine-2-carboxylic acid (3-phenyl-propyl)-amide]	–	> 10
CN[C@@H](C)C(=O)N[C@H](C(=O)N1CCN(S(=O)(=O)C2CCCCC2)C[C@H]1C(=O)NC1CCCc2ccccc21)C(C)C (stereo partly drawn) [Compound 11, (S)-4-Cyclohexanesulfonyl-1-[(S)-3-methyl-2-((S)-2-methylamino-propionylamino)-butyryl]-piperazine-2-carboxylic acid (1,2,3,4-tetrahydro-naphthalen-1-yl)-amide]	< 10	–
CN[C@@H](C)C(=O)N[C@H](C(=O)N1CCN(C(=O)NCc2ccccc2)C[C@H]1C(=O)NC1CCCc2ccccc21)C(C)C (stereo partly drawn) [Compound 5, (S)-4-[(S)-3-Methyl-2-((S)-2-methylamino-propionylamino)-butyryl]-piperazine-1,3-dicarboxylic acid 1-benzylamide 3-[(1,2,3,4-tetrahydro-naphthalen-1-yl)-amide]]	< 10	–
CN[C@@H](C)C(=O)N[C@H](C(=O)N1CCN(Cc2ccccc2)C[C@H]1C(=O)NCCc1ccc(F)cc1)C(C)C [Compound 71, (S)-4-Benzyl-1-[(S)-3-methyl-2-((S)-2-methylamino-propionylamino)-butyryl]-piperazine-2-carboxylic acid [2-(4-fluoro-phenyl)-ethyl]-amide]	–	< 10
CN[C@@H](C)C(=O)N[C@H](C(=O)N1CCN(Cc2ccccc2)C[C@H]1C(=O)NCC1CCCC1)C(C)C [Compound 81, (S)-4-Benzyl-1-[(S)-3-methyl-2-((S)-2-methylamino-propionylamino)-butyryl]-piperazine-2-carboxylic acid cyclopentylmethyl-amide]	–	< 10
CN[C@@H](C)C(=O)N[C@H](C(=O)N1CCN(CCC(C)(C)C)C[C@H]1C(=O)NC1CCCc2ccccc21)C(C)C (stereo partly drawn) [Compound 21, (S)-4-(3,3-Dimethyl-butyl)-1-[(S)-3-methyl-2-((S)-2-methylamino-propionylamino)-butyryl]-piperazine-2-carboxylic acid (1,2,3,4-tetrahydro-naphthalen-1-yl)-amide]	< 10	–
CN[C@@H](C)C(=O)N[C@H](C(=O)N1CCN(CC(C)C)C[C@H]1C(=O)NC1CCCc2ccccc21)C(C)C (stereo partly drawn) [Compound 8, (S)-4-Isobutyl-1-[(S)-3-methyl-2-((S)-2-methylamino-propionylamino)-butyryl]-piperazine-2-carboxylic acid (1,2,3,4-tetrahydro-naphthalen-1-yl)-amide]	< 10	–
CN[C@@H](C)C(=O)N[C@H](C(=O)N1CCN(C(=O)Nc2ccccc2)C[C@H]1C(=O)NC1CCCc2ccccc21)C(C)C (stereo partly drawn) [Compound 41, (S)-4-[(S)-3-Methyl-2-((S)-2-methylamino-propionylamino)-butyryl]-piperazine-1,3-dicarboxylic acid 1-phenylamide 3-[(1,2,3,4-tetrahydro-naphthalen-1-yl)-amide]]	< 10	–
CN[C@@H](C)C(=O)N[C@H](C(=O)N1CCN(Cc2ccccc2)C[C@H]1C(=O)NCc1nccs1)C(C)C [Compound 73, (S)-4-Benzyl-1-[(S)-3-methyl-2-((S)-2-methylamino-propionylamino)-butyryl]-piperazine-2-carboxylic acid (thiazol-2-ylmethyl)-amide]	–	> 10

Next, values leading:

IC50 [1] [µM]	IC50 [2] [µM]	Compound
< 10	–	CN[C@@H](C)C(=O)N[C@H](C(=O)N1CCN(Cc2ccc(OC)cc2)C[C@H]1C(=O)NC1CCCc2ccccc21)C(C)C (stereo partly drawn) [Compound 6, (S)-4-(4-Methoxy-benzyl)-1-[(S)-3-methyl-2-((S)-2-methylamino-propionylamino)-butyryl]-piperazine-2-carboxylic acid (1,2,3,4-tetrahydro-naphthalen-1-yl)-amide]
< 10	–	4-Benzyl-1-[3-methyl-2-(2-methylamino-propionylamino)-butyryl]-piperazine-2-carboxylic acid (1,2,3,4-tetrahydro-naphthalen-1-yl)-amide [Compound 1]
< 10	–	CN[C@@H](C)C(=O)N[C@H](C(=O)N1CCN(C(=O)c2ccc(NC(C)=O)cc2)C[C@H]1C(=O)NC1CCCc2ccccc21)C(C)C (stereo partly drawn) [Compound 27, (S)-4-(4-Acetylamino-benzoyl)-1-[(S)-3-methyl-2-((S)-2-methylamino-propionylamino)-butyryl]-piperazine-2-carboxylic acid (1,2,3,4-tetrahydro-naphthalen-1-yl)-amide]
–	< 10	CN[C@@H](C)C(=O)N[C@H](C(=O)N1CCN(Cc2ccccc2)C[C@H]1C(=O)NC(Cc1ccccc1)Cc1ccccc1)C(C)C [Compound 80, (S)-4-Benzyl-1-[(S)-3-methyl-2-((S)-2-methylamino-propionylamino)-butyryl]-piperazine-2-carboxylic acid (1-benzyl-2-phenyl-ethyl)-amide]
> 10	–	C[C@@H](C(=O)N[C@H](C(=O)N1CCN(Cc2ccccc2)C[C@H]1C(=O)N[C@@H]1CCCc2ccccc21)C1CCCCC1)N(C)C(=O)OC(C)(C)C [Compound 58, [(S)-1-((S)-2-{(S)-4-Benzyl-2-[(R)-(1,2,3,4-tetrahydro-naphthalen-1-yl)carbamoyl]-piperazin-1-yl}-1-cyclohexyl-2-oxo-ethylcarbamoyl)-ethyl]-methyl-carbamic acid tert-butyl ester]
< 10	–	CCN1CCN(C(=O)[C@@H](NC(=O)[C@H](C)NC)C(C)C)[C@H](C(=O)NC2CCCc3ccccc32)C1 (stereo partly drawn) [Compound 32, (S)-4-Ethyl-1-[(S)-3-methyl-2-((S)-2-methylamino-propionylamino)-butyryl]-piperazine-2-carboxylic acid (1,2,3,4-tetrahydro-naphthalen-1-yl)-amide]
< 10	–	CN[C@@H](C)C(=O)N[C@H](C(=O)N1CCN(C(=O)Nc2ccc(F)cc2)C[C@H]1C(=O)NC1CCCc2ccccc21)C(C)C (stereo partly drawn) [Compound 40, (S)-4-[(S)-3-Methyl-2-((S)-2-methylamino-propionylamino)-butyryl]-piperazine-1,3-dicarboxylic acid 1-[(4-fluoro-phenyl)-amide] 3-[(1,2,3,4-tetrahydro-naphthalen-1-yl)-amide]]
< 10	–	CN[C@@H](C)C(=O)N[C@H](C(=O)N1CCN(S(C)(=O)=O)C[C@H]1C(=O)NC1CCCc2ccccc21)C(C)C (stereo partly drawn) [Compound 30, (S)-4-Methanesulfonyl-1-[(S)-3-methyl-2-((S)-2-methylamino-propionylamino)-butyryl]-piperazine-2-carboxylic acid (1,2,3,4-tetrahydro-naphthalen-1-yl)-amide]
